Data as given in patent US11345681B1, “Inhibitors of fibroblast growth factor receptor kinases” (Kinnate Biopharma Inc., priority 2020, dated 2022).
Read-outs that look alike come from different tables or passages of the source.

Biological target: Wild type FGFR2 (Homo sapiens (Human), UniProt P21802)
Assay: FGFR2 kinase assay (fluorescence-based microfluidic mobility shift assay)
Type: biochemical
[1] = wild type FGFR2 0.06 nM, 100 μM ATP, 80 minutes at room temperature, class symbols

Chain of Wild type FGFR2 (P21802 22-821): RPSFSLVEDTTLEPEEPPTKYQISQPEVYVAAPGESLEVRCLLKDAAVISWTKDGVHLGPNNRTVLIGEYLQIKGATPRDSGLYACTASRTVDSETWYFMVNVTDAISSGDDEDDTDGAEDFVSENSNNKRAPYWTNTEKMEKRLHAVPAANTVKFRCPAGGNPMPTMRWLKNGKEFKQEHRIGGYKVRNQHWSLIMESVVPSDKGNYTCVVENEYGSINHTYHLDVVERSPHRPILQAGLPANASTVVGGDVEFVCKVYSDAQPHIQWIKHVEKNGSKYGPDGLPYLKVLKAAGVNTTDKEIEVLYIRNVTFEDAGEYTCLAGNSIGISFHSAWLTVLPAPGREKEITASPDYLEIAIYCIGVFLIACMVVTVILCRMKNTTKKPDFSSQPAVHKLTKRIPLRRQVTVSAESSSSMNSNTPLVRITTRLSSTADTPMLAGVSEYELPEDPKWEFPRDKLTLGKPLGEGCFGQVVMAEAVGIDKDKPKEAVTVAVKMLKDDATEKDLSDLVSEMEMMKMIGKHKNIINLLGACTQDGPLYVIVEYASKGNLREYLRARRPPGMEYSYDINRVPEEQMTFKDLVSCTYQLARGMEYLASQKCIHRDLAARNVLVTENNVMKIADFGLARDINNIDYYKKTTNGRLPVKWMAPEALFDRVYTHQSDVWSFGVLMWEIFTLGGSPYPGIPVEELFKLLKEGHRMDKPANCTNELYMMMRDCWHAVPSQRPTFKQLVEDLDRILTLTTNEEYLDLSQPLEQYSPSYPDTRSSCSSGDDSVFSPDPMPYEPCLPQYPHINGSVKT

Compound | IC50 [1] [nM] | also measured
C=CC(=O)N1C[C@@H](n2nc(C#Cc3cc4ncn(C5CC5)c4cc3F)c(C(N)=O)c2N)C[C@@H]1[C@H](C)O [Example 241, 5-Amino-3-[2-(1-cyclopropyl-6-fluoro-1,3-benzodiazol-5-yl)ethynyl]-1-[(3S,5R)-5-[(1S)-1-hydroxyethyl]-1-(prop-2-enoyl)pyrrolidin-3-yl]pyrazole-4-carboxamide] | ≤ 100 | –
C=CC(=O)N1C[C@@H](n2nc(C#Cc3cc4nc(C5CC5)n(C)c4cn3)c(C(N)=O)c2NC)C[C@@H]1COC [Example 63, 3-(2-[2-Cyclopropyl-3-methylimidazo[4,5-c]pyridin-6-yl]ethynyl)-1-[(3S,5R)-5-(methoxymethyl)-1-(prop-2-enoyl)pyrrolidin-3-yl]-5-(methylamino)pyrazole-4-carboxamide] | – | IC50 (wild type FGFR2 0.06 nM, 100 μM ATP, 80 minutes at room temperature, given as numeric bound): > 500 nM
CNc1c(C(N)=O)c(C#Cc2cc3ncn(C4CC4)c3cc2F)nn1C1CN(C(=O)/C=C/CN(C)C)C1 [Example 204, 3-[2-(1-Cyclopropyl-6-fluoro-1,3-benzodiazol-5-yl)ethynyl]-1-{1-[(2E)-4-(dimethylamino)but-2-enoyl]azetidin-3-yl}-5-(methylamino)pyrazole-4-carboxamide] | 100 to 1000 | –
C=CC(=O)N1C[C@@H](n2nc(C#Cc3cc4ncn(C5CC5)c4cc3Cl)c(C(N)=O)c2NC)C[C@@H]1[C@@H](C)O [Example 222, 3-[2-(6-Chloro-1-cyclopropyl-1,3-benzodiazol-5-yl)ethynyl]-1-[(3S,5R)-5-[(1R)-1-hydroxyethyl]-1-(prop-2-enoyl)pyrrolidin-3-yl]-5-(methylamino)pyrazole-4-carboxamide] | ≤ 100 | –
C=CC(=O)N1C[C@@H](n2nc(C#Cc3ccn4nccc4n3)c(C(N)=O)c2NC)C[C@@H]1COC [Example 53, 1-[(3S,5R)-5-(Methoxymethyl)-1-(prop-2-enoyl)pyrrolidin-3-yl]-5-(methylamino)-3-(2-[pyrazolo[1,5-a]pyrimidin-5-yl]ethynyl)pyrazole-4-carboxamide] | 100 to 1000 | –
C#CC(=O)N1C[C@@H](n2nc(C#Cc3cc4ncn(C5CC5)c4cc3F)c(C(N)=O)c2NC)C[C@@H]1CO [Example 198, 3-[2-(1-Cyclopropyl-6-fluoro-1,3-benzodiazol-5-yl)ethynyl]-1-[(3S,5R)-5-(hydroxymethyl)-1-(prop-2-ynoyl)pyrrolidin-3-yl]-5-(methylamino)pyrazole-4-carboxamide] | – | IC50: < 100 nM
C=CC(=O)N1C[C@@H](n2nc(C#Cc3cc4ncn(C(F)F)c4cc3Cl)c(C(N)=O)c2NC)C[C@@H]1COC [Example 94, 3-[2-[6-Chloro-1-(difluoromethyl)-1,3-benzodiazol-5-yl]ethynyl]-1-[(3S,5R)-5-(methoxymethyl)-1-(prop-2-enoyl)pyrrolidin-3-yl]-5-(methylamino)pyrazole-4-carboxamide] | ≤ 100 | –
C=CC(=O)N1CC[C@H](n2nc(C#Cc3c(F)cc4c(ncn4CC)c3F)c(C(N)=O)c2NCCOC)C1 [Example 119, 3-[2-(1-Ethyl-4,6-difluoro-1,3-benzodiazol-5-yl)ethynyl]-5-[(2-methoxyethyl)amino]-1-[(3S)-1-(prop-2-enoyl)pyrrolidin-3-yl]pyrazole-4-carboxamide] | ≤ 100 | –

Now from value to molecule, other results behind:

IC50 [1] [nM] | Compound | also measured
≤ 100 | C=CC(=O)N1C[C@@H](n2nc(C#Cc3c(F)cc4c(ncn4C4CC4)c3F)c(C(N)=O)c2NC)C[C@H]1CF [Example 181, 3-[2-(1-Cyclopropyl-4,6-difluoro-1,3-benzodiazol-5-yl)ethynyl]-1-[(3S,5S)-5-(fluoromethyl)-1-(prop-2-enoyl)pyrrolidin-3-yl]-5-(methylamino)pyrazole-4-carboxamide] | –
≤ 100 | C=CC(=O)N1C[C@@H](n2nc(C#Cc3cc4ncn(C5CCC5)c4cc3Cl)c(C(N)=O)c2NC)C[C@@H]1COC [Example 232, 3-[2-(6-chloro-1-cyclobutyl-1,3-benzodiazol-5-yl)ethynyl]-1-[(3S,5R)-5-(methoxymethyl)-1-(prop-2-enoyl)pyrrolidin-3-yl]-5-(methylamino)pyrazole-4-carboxamide] | –
≤ 100 | C=CC(=O)N1C[C@@H](n2nc(C#Cc3cc4ncn([C@H]5CC5(F)F)c4cc3Cl)c(C(N)=O)c2NC)C[C@@H]1COC (single isomer, unassigned) [Example 280] | –
≤ 100 | C=CC(=O)N1C[C@@H](n2nc(C#Cc3ccc4nn(CC)cc4c3)c(C(N)=O)c2NC)C[C@@H]1COC [Example 15, 1-((3S,5R)-1-acryloyl-5-(methoxymethyl)pyrrolidin-3-yl)-3-((2-ethyl-2H-indazol-5-yl)ethynyl)-5-(methylamino)-1H-pyrazole-4-carboxamide] | –
≤ 100 | C=CC(=O)N1C[C@@H](n2nc(C#Cc3cc4nncc(C)c4cc3F)c(C(N)=O)c2NC)C[C@@H]1COC [Example 266, 1-((3S,5R)-1-Acryloyl-5-(methoxymethyl)pyrrolidin-3-yl)-3-((6-fluoro-4-methylcinnolin-7-yl)ethynyl)-5-(methylamino)-1H-pyrazole-4-carboxamide] | –
≤ 100 | C=CC(=O)N1C[C@@H](n2nc(C#Cc3c(F)c(F)c4c(ncn4C4CC4)c3F)c(C(N)=O)c2NC)C[C@@H]1COC [Example 153, 3-[2-(1-cyclopropyl-4,6,7-trifluoro-1,3-benzodiazol-5-yl)ethynyl]-1-[(3S,5R)-5-(methoxymethyl)-1-(prop-2-enoyl)pyrrolidin-3-yl]-5-(methylamino)pyrazole-4-carboxamide] | –
≤ 100 | C=CC(=O)N1CC[C@H](n2nc(C#Cc3cc4ncn(C5CC5)c4cc3F)c(C(N)=O)c2N)C1 [Example 168, 5-Amino-3-[2-(1-cyclopropyl-6-fluoro-1,3-benzodiazol-5-yl)ethynyl]-1-[(3S)-1-(prop-2-enoyl)pyrrolidin-3-yl]pyrazole-4-carboxamide] | –
≤ 100 | C=CC(=O)N1C[C@@H](n2nc(C#Cc3c(F)cc4c(ncn4CC)c3F)c(C(N)=O)c2NCCOC)C[C@@H]1COC [Example 117, 3-[2-(1-Ethyl-4,6-difluoro-1,3-benzodiazol-5-yl)ethynyl]-5-[(2-methoxyethyl)amino]-1-[(3S,5R)-5-(methoxymethyl)-1-(prop-2-enoyl)pyrrolidin-3-yl]pyrazole-4-carboxamide] | –
≤ 100 | C=CC(=O)N1C[C@@H](n2nc(C#Cc3ccc4c(C#N)cnn4c3)c(C(N)=O)c2NC)C[C@@H]1COC [Example 263, 3-(2-{3-Cyanopyrazolo[1,5-a]pyridin-6-yl}ethynyl)-1-[(3S,5R)-5-(methoxymethyl)-1-(prop-2-enoyl)pyrrolidin-3-yl]-5-(methylamino)pyrazole-4-carboxamide] | –
≤ 100 | C#CC(=O)N1C[C@@H](n2nc(C#Cc3c(F)cc4c(ncn4C4CC4)c3F)c(C(N)=O)c2NC)C[C@@H]1COC [Example 184, 3-[2-(1-cyclopropyl-4,6-difluoro-1,3-benzodiazol-5-yl)ethynyl]-1-[(3S,5R)-5-(methoxymethyl)-1-(prop-2-ynoyl)pyrrolidin-3-yl]-5-(methylamino)pyrazole-4-carboxamide] | –
≤ 100 | C=CC(=O)N1C[C@@H](n2nc(C#Cc3cc4ncn(CC)c4cc3Cl)c(C(N)=O)c2N)C[C@@H]1COC [Example 196, 5-Amino-3-[2-(6-chloro-1-ethyl-1,3-benzodiazol-5-yl)ethynyl]-1-[(3S,5R)-5-(methoxymethyl)-1-(prop-2-enoyl)pyrrolidin-3-yl]pyrazole-4-carboxamide] | –
